Results reported in article PMC5398486, “Cheminformatics-aided discovery of small-molecule Protein-Protein Interaction (PPI) dual inhibitors of Tumor Necrosis Factor (TNF) and Receptor Activator of NF-κB Ligand (RANKL)” (PLoS Computational Biology, 2017).

What was measured:
[1] = Measurement of cytotoxicity in L929 cells (crystal violet); assay type: cell-based; conditions: mouse, compound alone, read-out: L929 LC50
Description: L929 cells were seeded onto a 96-well plate (3x10^4 cells/well). After 24 h, cells were treated with the compounds at increasing concentrations. DMSO was used in the untreated control. The next day, a PBS-washing step was performed to remove dead cells. The remaining live cells were next fixed with methanol and stained with crystal violet. After solubilization with acetic acid, staining was quantified spectrophotometrically at 570 nm. Survival is expressed with respect to the untreated control. Experiments were performed in triplicate.

TNF/TNFR1 interaction = target: T1, TNF/TNFR1 interaction (Homo sapiens, UniProt P01375); experiment: TNF/TNFR1 ELISA assay; assay type: binding
T1 construct: purchased PeproTech
Description: 96-well plates were coated with 0.1 mg/mL recombinant soluble human TNFR1 (PeproTech) in PBS overnight at 4°C. […] After two consecutive rounds of washes, plates were incubated with a rabbit anti-human-TNF antibody (provided by Prof. W. A. Buurman, University of Maastricht) and an anti-rabbit secondary antibody conjugated with HRP (Vector Laboratories). Both incubations were for 1 h and were performed at room temperature. Following a last round of washes, the signal was finally developed using the TMB Substrate Kit (ThermoFisher Scientific) and was measured spectrophotometrically at 450 nm. Experiments were performed in triplicate. Having established that the selected compounds obstruct TNF function, and since TNF exerts its functions mainly through interacting with the TNFR1 receptor, a further test was performed to evaluate the effect of inhibition on this protein-receptor interaction.

BM viability (MTT assay) = assay type: cell-based; conditions: primary bone marrow cells, M-CSF 25 ng/mL, read-out: LC50 (RANKL complexes, BM viability)
Description: BMs were plated on 96-well plates at a density of 10^5 cells/well and treated with T8 and T23 at various concentrations, in the presence of M-CSF (25 ng/mL) for 48 hours. Cell viability was determined by the 3-(4,5-dimethylthiazol-2-yl)-2,5-diphenyltetrazolium bromide (MTT) colorimetric assay, which measures the ability of viable cells to reduce a soluble tetrazolium salt to an insoluble purple formazan precipitate.[63] After removal of the medium, each well was incubated with 0.5 mg/mL MTT (Sigma-Aldrich, St. Louis, MO) in serum-free α-MEM at 37°C for 3 h. At the end of the incubation period, the medium was removed and the intracellular formazan was solubilized with 200 μL DMSO and quantified by reading the absorbance at 550 nm on a microplate reader (Optimax; Molecular Devices, Sunnyvale, CA). Cell viability (%) was expressed as a percentage of the negative control treated without compounds. LC50 values were calculated as mean ± SEM from three independent experiments.

T1 sequence (P01375 77-233 limits assumed): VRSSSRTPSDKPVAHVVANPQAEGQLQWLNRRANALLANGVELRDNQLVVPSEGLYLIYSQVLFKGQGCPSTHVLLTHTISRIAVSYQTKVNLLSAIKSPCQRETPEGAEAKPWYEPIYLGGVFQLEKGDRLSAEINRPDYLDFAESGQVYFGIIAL

Compound	CC50 at 1 day [1] [µM]	IC50 (TNF/TNFR1 interaction) [µM]	CC50 at 48 h (BM viability (MTT assay)) [µM]
O=C(NNC(=NS(=O)(=O)c1ccc(-n2nc(C(F)(F)F)cc2-c2cccs2)cc1)N1CCCC1)c1ccc(Cl)cc1 [Compound T8, N-[(4-chlorobenzoyl)amino]-N'-[4-[5-thiophen-2-yl-3-(trifluoromethyl)pyrazol-1-yl]phenyl]sulfonylpyrrolidine-1-carboximidamide]	> 100	30 ± 2.3	42.6 ± 4.3
COc1cc(OC(C)=O)c(-c2cc(OC(C)=O)c(OC)cc2OC(C)=O)cc1OC(C)=O [Compound T23, [4-acetyloxy-2-(2,5-diacetyloxy-4-methoxyphenyl)-5-methoxyphenyl] acetate]	> 100	3 ± 0.1	5.9 ± 0.3
